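Growth conditions: 96-well plates. Treatment: test compound, 48 hours, 5 concentrations. Analysis: linear interpolation between bracketing concentrations; unreached endpoints set to highest concentration. The concentration for full growth arrest is given as TGI.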 Where only a bound is given, the exact number is not on record here.

Experiment in all cases: NCI tumour cell line growth inhibition, 48 h
Assay [1] concerns HCC-2998 colon.
Assay [2] deals with HL-60(TB) leukemia.
Assay [3] has as its system K-562 leukemia.
Assay [4] deals with MDA-MB-435.
For assay [5], the system named is NCI/ADR-RES ovarian.
The subject of assay [6] is OVCAR-3 ovarian.
Assay [7] deals with OVCAR-4 ovarian.
For assay [8], the system named is RXF 393 renal.
The test system of assay [9] is SF-295 CNS.
The subject of assay [10] is SF-539 CNS.
For assay [11], the system named is SK-MEL-5 melanoma.
The subject of assay [12] is SNB-75 CNS.
Assay [13] has as its system U251 CNS.

Turning to `C=C1CC(CNc2cc(Cl)nc(N)n2)C1`, the TGI in [1], in [2], in assay [3], in assay [4], in [5] and in assay [6] was over 100 µM in each case. Further, the TGI in assay [7], in assay [8], in [9], in [10], in [11] and in assay [12] was over 100 µM each time. The molecule further yielded a TGI in [13] of over 100 µM.

For `Cc1ccnc2c1c(=O)c1ccccc1n2C`, the TGI in assay [1], in [2], in assay [3], in assay [4], in assay [5] and in assay [6] was over 100 µM each time. Further, the TGI in [7] is over 100 µM; in [8], over 100 µM; in [9], over 100 µM; in [10], over 100 µM; in [11], 47.2 µM; in [12] it was 56.3 µM. Moreover, the TGI in [13] was over 100 µM.

As to `COc1cc(/C=C2\CCc3cc(OC)c(OC)cc3C2=O)cc(OC)c1`, the TGI in assay [1] was 15 µM; in assay [2] it was over 24 µM; in assay [3] it was over 61 µM; in assay [4] it was over 100 µM; in assay [5], 10.9 µM; in assay [6], over 42 µM. In addition, the TGI is over 100 µM in assay [7]; over 42.4 µM in assay [8]; over 25.1 µM in assay [9]; over 31 µM in assay [10]; 18.1 µM in [11]; over 100 µM in assay [12]. This molecule also registered a TGI in assay [13] of over 100 µM.

In the case of `Cc1ccc(-c2c(C#N)c(S)n(NS(=O)(=O)c3ccccc3)c(=O)c2C#N)cc1`, the TGI in assay [1] was over 100 µM; in assay [2], 41.9 µM; in assay [3], over 100 µM; in assay [4], 78.9 µM; in [5], 39.8 µM; in [6] it was over 100 µM. Besides, the TGI in [7] was over 100 µM; in assay [8] it was over 100 µM; in assay [9], over 100 µM; in [10], 58.3 µM; in [11] it was 69.4 µM; in assay [12], 97.2 µM. The TGI in [13] amounted to 83.5 µM.

Regarding `O=C1NC(N/N=C/C(O)C(O)C(O)C(O)CO)=N/C1=C\c1cccs1` (stereo not drawn), the TGI in assay [1], in assay [2], in assay [3], in assay [4], in [5] and in [6] was over 100 µM throughout. Moreover, the TGI in [7], in [8], in assay [9], in [10], in assay [11] and in [12] was over 100 µM each time. Further, the TGI in [13] is over 100 µM.

For the molecule `OCC1CCCCN1Cc1nc2ccc(Cl)cc2[nH]1` (stereo not drawn), the TGI in [1], in assay [2], in assay [3], in assay [4], in assay [5] and in [6] was over 100 µM each time. Also, the TGI in [7], in assay [8], in [9], in [10], in assay [11] and in assay [12] was over 100 µM each time. The TGI in [13] was over 100 µM.

With `CCOC(=O)CC[C@@H](NC(=O)c1ccc(NCc2ccc3nc(OC)c(OC)nc3c2)cc1)C(=O)OCC`, the TGI in assay [1] is over 100 µM; in [2], over 100 µM; in assay [3], over 100 µM; in assay [4], 99.2 µM; in [5], over 100 µM; in assay [6] it was 38.3 µM. Besides, the TGI in [7] was over 100 µM; in [8] it was over 58.1 µM; in assay [9] it was over 100 µM; in assay [10], 45.8 µM; in [11] it was 27.9 µM; in assay [12], 24.9 µM. Besides, the TGI in assay [13] is over 100 µM.

For `C=C(Br)C(Cl)(CBr)CCC(Br)C(C)(C)Cl` (stereo not drawn), the TGI in assay [1], in assay [2], in assay [3], in [4], in assay [5] and in assay [6] was over 10 µM throughout. The TGI in assay [7], in assay [8], in assay [9], in assay [10], in assay [11] and in [12] was over 10 µM each time. In [13], the TGI is over 10 µM.

Take `C(/C=N/NC1=NCCN1)=N\NC1=NCCN1`: the TGI is over 100 µM in [1]; 34.2 µM in [2]; 31.6 µM in assay [3]; over 100 µM in [4]; over 100 µM in assay [5]; over 100 µM in assay [6]. In addition, the TGI in assay [7], in assay [8], in [9], in assay [10], in [11] and in assay [12] was over 100 µM each time. The same molecule showed a TGI in [13] of over 100 µM.

As for `CC(=O)NC1CCC(NC(=O)OC(C)(C)C)C(NC(=O)OC(C)(C)C)C1` (stereo not drawn), the TGI in [1], in assay [2], in assay [3], in assay [4], in assay [5] and in [6] was over 100 µM in each case. Besides, the TGI in assay [7], in [8], in assay [9], in assay [10], in assay [11] and in assay [12] was over 100 µM in each case. The molecule also showed a TGI in assay [13] of over 100 µM.

`O=[N+]([O-])/C(C(Cl)=C(Cl)Cl)=C(/Sc1ccccc1)N1CCOCC1`: the TGI stood at 29.9 µM in assay [1]; 4.51 µM in [2]; 3.89 µM in assay [3]; 9.2 µM in assay [4]; 38.4 µM in [5]; 8.87 µM in [6]. Also, the TGI worked out at 28.4 µM in [7]; 3.7 µM in [8]; 36.4 µM in assay [9]; 25.5 µM in assay [10]; 11.4 µM in assay [11]; 24.4 µM in [12]. The molecule further yielded a TGI in [13] of 23.5 µM.

The values are drawn from PubChem BioAssay (NCI).
